Data: paper PMC8766756, “Insights on Cancer Cell Inhibition, Subcellular Activities, and Kinase Profile of Phenylacetamides Pending 1H-Imidazol-5-One Variants” (Frontiers in Pharmacology, 2022)
Where “and” joins values, the source holds several entries; their conditions need not be identical. Identical values can stand only once.

Experiments:
Assay in all cases: PamChip tyrosine kinase microarray
Assay type in all cases: biochemical
Details in all cases: 0.1 µM, HL60 lysate
FAK2 (Q14289) = biological target: T1, FAK2 (Q14289) (Homo sapiens, UniProt Q14289)
T1 construct: purchased PamGene (PamChip PTK array, Upstream Kinase Analysis)
Procedure: (§1) The reproducible high potency of KIM-161 on leukemia cell lines was initially speculated to encompass Src tyrosine kinase inhibition. Even so, we also suspected that KIM-161 might be affecting other tyrosine kinases because the HL60 cells are not among the most Src-dependent highly proliferative cells ([Collins, 1987]). Therefore, a profiling of the kinase activities was performed after treatment with KIM-161 using PamChip® tyrosine kinase microarray. This analysis is based on incubation of cell lysate with 3D microarray that projects peptides specific for 143 tyrosine kinases. If a kinase is modified in the cells, it will be detected by phosphorylating its specific peptide in the microarray.
(§2) This test measured the activities of an array of tyrosine kinases of treated HL60 cells compared to the control (untreated cells) after incubation with KIM-161 for 48 h at concentrations of 0.001, 0.01, 0.1, 1.0, 10, and 50 µM. The log fold change (LFC) heat map was initially used to identify significant peptides affected at each concentration (Figure 5).
(§3) An Upstream Kinase Tool was used to generate a putative list of kinases responsible for phosphorylating the phosphosites on the PamChip®. It is an interpretation and is highly dependent on the contents of the underlying phosphorylation databases. Kinase score (Table 2) was used for ranking kinases based on their significance and specificity in terms of the set of peptides used for the corresponding kinase. Kinase statistics indicates the overall change of the peptide set that represents a certain kinase. Kinase statistics value of <0 indicates lower kinase activity in the lysate spiked with the compound and vice versa. Table 2 lists the 20 most changed kinases within treated HL60 cell lysates by 0.1 μM KIM-161.
(§4) Every compound had spiked into a leukemic (AML) cell line HL60 lysate at different concentrations (0.001, 0.01, 0.1, 1, 10, and 50 μM). In addition, DMSO had also spiked at a low concentration (2% v/v) to the HL60 lysate as the control. The samples were profiled on PamGene's tyrosine kinase (PTK) arrays in technical replicates, covering a total of 196 phosphorylation sites. The frozen leukemic HL60 cultured cell pellet was sent to PamGene. At PamGene, the cells were lysed in the presence of the lysis buffer and proteases inhibitor cocktail. The protein concentration was measured using the standard Bradford assay as per the PamGene SOPs. These lysates were further used for generating the PTK activity profiles. For spiking, KIM-161 was received in powder form and dissolved in DMSO at the PamGene facility, followed by storing it at −20°C in small aliquots. PamGene used its in-house bioinformatics toolbox in combination with other methods to generate the hypotheses of signaling pathways.

ITK (Q08881) = biological target: T2, ITK (Q08881) (Homo sapiens, UniProt Q08881)
T2 construct: purchased PamGene (PamChip PTK array, Upstream Kinase Analysis)
T2 sequence (Q08881 1-620): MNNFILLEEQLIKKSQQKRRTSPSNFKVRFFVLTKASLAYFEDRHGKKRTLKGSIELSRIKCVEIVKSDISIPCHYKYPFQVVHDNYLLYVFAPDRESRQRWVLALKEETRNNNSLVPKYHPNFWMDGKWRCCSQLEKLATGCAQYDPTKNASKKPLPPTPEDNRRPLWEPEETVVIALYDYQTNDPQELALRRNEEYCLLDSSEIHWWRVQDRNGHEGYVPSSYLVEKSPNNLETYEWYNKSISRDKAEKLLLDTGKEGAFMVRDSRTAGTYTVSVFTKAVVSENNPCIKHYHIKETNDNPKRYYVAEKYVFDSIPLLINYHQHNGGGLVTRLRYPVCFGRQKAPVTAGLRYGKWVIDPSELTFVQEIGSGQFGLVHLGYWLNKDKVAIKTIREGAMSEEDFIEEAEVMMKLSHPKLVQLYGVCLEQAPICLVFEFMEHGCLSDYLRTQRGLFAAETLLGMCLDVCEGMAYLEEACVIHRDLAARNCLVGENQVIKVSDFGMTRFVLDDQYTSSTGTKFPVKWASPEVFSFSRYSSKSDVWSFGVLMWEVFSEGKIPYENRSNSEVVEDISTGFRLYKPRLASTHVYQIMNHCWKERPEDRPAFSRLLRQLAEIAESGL
Procedure: as §1, §2, §3, §4

Ros (P08922) = biological target: T3, Ros (P08922) (Homo sapiens, UniProt P08922)
T3 construct: purchased PamGene (PamChip PTK array, Upstream Kinase Analysis)
Procedure: as §1, §2, §3, §4

Lyn (P07948) = biological target: T4, Lyn (P07948) (Homo sapiens, UniProt P07948)
T4 construct: purchased PamGene (PamChip PTK array, Upstream Kinase Analysis)
Procedure: as §1, §2, §3, §4

RYK (H0Y8A4) = biological target: T5, RYK (H0Y8A4) (Homo sapiens, UniProt P34925)
T5 construct: purchased PamGene (PamChip PTK array, Upstream Kinase Analysis)
Procedure: as §1, §2, §3, §4

Ron (Q04912) = biological target: T6, Ron (Q04912) (Homo sapiens, UniProt Q04912)
T6 construct: purchased PamGene (PamChip PTK array, Upstream Kinase Analysis)
Procedure: as §1, §2, §3, §4

T1 sequence (Q14289 whole entry): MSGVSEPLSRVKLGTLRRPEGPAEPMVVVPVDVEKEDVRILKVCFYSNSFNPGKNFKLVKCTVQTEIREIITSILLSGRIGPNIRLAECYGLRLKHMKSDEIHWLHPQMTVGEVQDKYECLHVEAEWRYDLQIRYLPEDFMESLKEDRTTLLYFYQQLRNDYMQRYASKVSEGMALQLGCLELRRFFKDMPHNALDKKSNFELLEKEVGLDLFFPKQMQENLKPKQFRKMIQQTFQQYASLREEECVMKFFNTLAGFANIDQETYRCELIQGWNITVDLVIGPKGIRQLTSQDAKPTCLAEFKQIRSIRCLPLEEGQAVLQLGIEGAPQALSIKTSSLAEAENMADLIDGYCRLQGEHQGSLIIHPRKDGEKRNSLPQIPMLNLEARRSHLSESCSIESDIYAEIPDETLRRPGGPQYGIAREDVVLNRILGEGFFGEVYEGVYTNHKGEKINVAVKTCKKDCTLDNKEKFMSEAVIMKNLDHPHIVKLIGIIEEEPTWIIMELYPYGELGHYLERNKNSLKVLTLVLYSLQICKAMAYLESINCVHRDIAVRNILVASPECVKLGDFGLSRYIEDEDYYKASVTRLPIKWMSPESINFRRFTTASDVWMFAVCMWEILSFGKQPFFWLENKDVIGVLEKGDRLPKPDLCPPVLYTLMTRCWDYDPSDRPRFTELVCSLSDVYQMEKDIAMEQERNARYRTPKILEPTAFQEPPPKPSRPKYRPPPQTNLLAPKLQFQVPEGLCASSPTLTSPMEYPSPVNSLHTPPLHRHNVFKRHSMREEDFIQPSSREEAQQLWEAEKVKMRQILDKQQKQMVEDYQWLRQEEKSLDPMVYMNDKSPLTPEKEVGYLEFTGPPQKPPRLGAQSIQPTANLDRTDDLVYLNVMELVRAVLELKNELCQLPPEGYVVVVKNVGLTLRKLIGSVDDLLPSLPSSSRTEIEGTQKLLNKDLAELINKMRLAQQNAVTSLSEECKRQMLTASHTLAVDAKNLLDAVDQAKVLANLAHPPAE
T4 sequence (P07948 whole entry): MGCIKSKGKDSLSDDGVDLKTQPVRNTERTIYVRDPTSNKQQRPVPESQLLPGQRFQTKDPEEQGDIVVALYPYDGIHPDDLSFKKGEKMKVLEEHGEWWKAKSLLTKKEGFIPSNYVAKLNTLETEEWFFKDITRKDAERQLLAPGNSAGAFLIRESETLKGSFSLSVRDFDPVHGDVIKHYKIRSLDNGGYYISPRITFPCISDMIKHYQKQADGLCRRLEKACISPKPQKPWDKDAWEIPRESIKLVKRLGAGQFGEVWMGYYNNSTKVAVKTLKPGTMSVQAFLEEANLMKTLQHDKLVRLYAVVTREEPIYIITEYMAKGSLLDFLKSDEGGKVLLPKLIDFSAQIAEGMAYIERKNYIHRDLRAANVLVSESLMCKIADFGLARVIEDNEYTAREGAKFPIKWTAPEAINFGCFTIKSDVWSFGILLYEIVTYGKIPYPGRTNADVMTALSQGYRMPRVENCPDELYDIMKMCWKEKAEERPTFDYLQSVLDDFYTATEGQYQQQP
T5 sequence (P34925 26-607, one chain of several): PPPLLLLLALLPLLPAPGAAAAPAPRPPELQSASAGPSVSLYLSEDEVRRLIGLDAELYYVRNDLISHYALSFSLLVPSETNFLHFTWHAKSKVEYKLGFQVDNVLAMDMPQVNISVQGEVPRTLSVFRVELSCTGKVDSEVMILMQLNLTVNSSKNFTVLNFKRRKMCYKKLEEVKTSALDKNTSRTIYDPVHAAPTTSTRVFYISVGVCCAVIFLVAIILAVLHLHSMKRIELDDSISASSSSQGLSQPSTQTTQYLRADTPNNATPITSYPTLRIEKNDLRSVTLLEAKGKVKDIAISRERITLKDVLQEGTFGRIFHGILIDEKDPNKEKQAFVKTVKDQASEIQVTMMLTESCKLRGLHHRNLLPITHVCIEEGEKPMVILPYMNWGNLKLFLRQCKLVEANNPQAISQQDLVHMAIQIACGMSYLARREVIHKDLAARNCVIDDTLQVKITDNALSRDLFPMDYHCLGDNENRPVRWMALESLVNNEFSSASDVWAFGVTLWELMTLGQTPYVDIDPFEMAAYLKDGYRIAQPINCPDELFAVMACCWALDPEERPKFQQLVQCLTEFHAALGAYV
T6 sequence (Q04912 25-1400): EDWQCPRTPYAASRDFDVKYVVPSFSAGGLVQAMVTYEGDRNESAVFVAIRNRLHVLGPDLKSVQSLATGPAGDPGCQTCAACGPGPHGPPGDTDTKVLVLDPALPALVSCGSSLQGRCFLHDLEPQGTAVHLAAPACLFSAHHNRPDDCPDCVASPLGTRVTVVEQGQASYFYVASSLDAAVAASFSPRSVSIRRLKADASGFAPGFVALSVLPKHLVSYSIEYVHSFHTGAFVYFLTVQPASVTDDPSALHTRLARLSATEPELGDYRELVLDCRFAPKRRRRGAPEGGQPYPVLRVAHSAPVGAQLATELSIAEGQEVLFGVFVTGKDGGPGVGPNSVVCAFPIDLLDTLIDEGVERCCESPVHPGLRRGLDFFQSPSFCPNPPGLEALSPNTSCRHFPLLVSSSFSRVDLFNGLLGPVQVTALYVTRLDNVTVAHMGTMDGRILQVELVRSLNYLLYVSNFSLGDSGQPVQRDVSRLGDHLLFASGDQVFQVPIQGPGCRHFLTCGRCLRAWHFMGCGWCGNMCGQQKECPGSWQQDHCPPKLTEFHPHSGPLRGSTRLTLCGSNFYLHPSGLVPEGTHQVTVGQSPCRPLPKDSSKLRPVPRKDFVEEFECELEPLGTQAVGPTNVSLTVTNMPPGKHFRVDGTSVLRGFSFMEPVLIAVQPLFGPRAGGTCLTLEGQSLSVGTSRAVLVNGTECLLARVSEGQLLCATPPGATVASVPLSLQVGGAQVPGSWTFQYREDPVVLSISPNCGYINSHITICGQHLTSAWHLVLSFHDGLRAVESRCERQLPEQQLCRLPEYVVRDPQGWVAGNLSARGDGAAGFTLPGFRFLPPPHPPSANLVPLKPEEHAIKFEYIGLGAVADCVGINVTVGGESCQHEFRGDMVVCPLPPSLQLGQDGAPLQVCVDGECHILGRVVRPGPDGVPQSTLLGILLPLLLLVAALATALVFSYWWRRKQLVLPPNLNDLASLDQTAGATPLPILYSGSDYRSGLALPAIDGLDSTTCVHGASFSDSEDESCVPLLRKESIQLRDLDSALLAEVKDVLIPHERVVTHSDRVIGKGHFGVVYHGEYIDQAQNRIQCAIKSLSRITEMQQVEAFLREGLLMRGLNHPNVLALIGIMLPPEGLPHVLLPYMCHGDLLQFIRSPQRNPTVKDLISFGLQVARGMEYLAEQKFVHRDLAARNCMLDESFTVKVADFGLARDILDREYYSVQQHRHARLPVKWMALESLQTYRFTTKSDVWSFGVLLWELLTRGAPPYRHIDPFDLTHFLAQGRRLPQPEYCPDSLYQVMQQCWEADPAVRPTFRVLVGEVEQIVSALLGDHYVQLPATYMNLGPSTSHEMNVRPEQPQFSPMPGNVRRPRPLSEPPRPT

COc1ccc(/C=C2\N=C(C)N(c3ccc(CC(=O)NCc4ccccc4)cc3)C2=O)cc1 [Compound 4c, (Z)-N-Benzyl-2-(4-(4-(4-methoxybenzylidene)-2-methyl-5-oxo-4,5-dihydro-1H-imidazol-1-yl)phenyl)acetamide]
Mean Final score (Kinase score) (FAK2 (Q14289)): 2.241 | Mean Kinase Statistic (FAK2 (Q14289)): -1.142 | Mean Significance Score (FAK2 (Q14289)): 2.048 | Mean Specificity Score (FAK2 (Q14289)): 0.216 | Mean Significance Score (ITK (Q08881)): 2.048 | Mean Specificity Score (ITK (Q08881)): 2.074 | Mean Final score (Kinase score) (ITK (Q08881); listed as KIM-161): 3.95 and 3.951 | Mean Significance Score (Ros (P08922)): 1.955 | Mean Specificity Score (Ros (P08922)): 0.9862 | Mean Final score (Kinase score) (Ros (P08922); listed as KIM-161): 2.90 and 2.9031 | Mean Final score (Kinase score) (Lyn (P07948)): 2.229 | Mean Kinase Statistic (Lyn (P07948)): -1.195 | Mean Significance Score (Lyn (P07948)): 1.851 | Mean Specificity Score (Lyn (P07948)): 0.3437 | Mean Final score (Kinase score) (RYK (H0Y8A4)): 2.574 | Mean Kinase Statistic (RYK (H0Y8A4)): -1.293 | Mean Significance Score (RYK (H0Y8A4)): 2.048 | Mean Specificity Score (RYK (H0Y8A4)): 0.5126 | Mean Significance Score (Ron (Q04912)): 2.048 | Mean Specificity Score (Ron (Q04912)): 0.9095 | Mean Final score (Kinase score) (Ron (Q04912); listed as KIM-161): 2.96 and 2.957
